Results published in US10022453B2 (BAYER PHARMA AKTIENGESELLSCHAFT, priority 2013, dated 2018).

Experiments:
[1] = biological target: T1, human kinesin spindle protein KSP/Eg5 (Homo sapiens, UniProt P52732); test: Inhibition of the kinesin spindle protein KSP/Eg5 (ATPase, malachite green); format: biochemical; conditions: 10 nM KSP motor domain, 500 μM ATP, 2 h RT
T1 construct: The motor domain of the human kinesin spindle protein KSP/Eg5; purchased tebu-bio/Cytoskeleton Inc 027EG01-XL
T1 sequence (P52732 18-359 limits assumed): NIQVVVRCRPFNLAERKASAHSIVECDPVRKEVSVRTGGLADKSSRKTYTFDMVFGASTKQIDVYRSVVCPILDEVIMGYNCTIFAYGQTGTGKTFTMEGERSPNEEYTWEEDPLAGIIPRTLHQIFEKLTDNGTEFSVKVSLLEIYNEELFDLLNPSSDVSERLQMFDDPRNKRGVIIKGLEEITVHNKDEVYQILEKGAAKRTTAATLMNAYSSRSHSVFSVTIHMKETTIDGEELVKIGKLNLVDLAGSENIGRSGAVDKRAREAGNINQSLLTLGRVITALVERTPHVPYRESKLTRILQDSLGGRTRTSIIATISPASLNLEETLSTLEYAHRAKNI
Procedure, shortened: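 KSP/Eg5 motor domain (10 nM) preincubated 5 min at RT with 50 μg/ml taxol-stabilized bovine or porcine microtubules in 15 mM PIPES pH 6.8, 5 mM MgCl2, 10 mM DTT. IC50 = mean of three experiments.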

NCI-H292 = test: Cytotoxic effects, MTT assay; format: cell-based; conditions: Homo sapiens, 72 h incubation
Protocol: The cells are cultivated by a standard method, as indicated in the […] (ATCC) for the respective cell lines.
At the end of the selected incubation time, the MTT reagent is incubated with the cells for 4 h, followed by lysis of the cells overnight by addition of the detergent. […] The proliferation of cells which were not treated with test substance but were otherwise identically treated was defined as the 100% figure.

[2] = Cell permeability, flux assay using Caco-2 cells; conditions: human, Caco-2

SMILES	IC50 [1]	IC50 (NCI-H292)	Papp B→A at 2 h [2]	efflux ratio at 2 h [2]
CC(C)(C)[C@H](c1nc(-c2cc(F)ccc2F)cn1Cc1ccccc1)N(CCCN)C(=O)CSCCC(NC(=O)CCOCCOCCOCCOCCNC(=O)CCN1C(=O)CC(SC[C@H](N)C(=O)O)C1=O)C(=O)O.O=C(O)C(F)(F)F.O=C(O)C(F)(F)F (mixture of isomers) [Example 140, N-[19-(3(R/S)-[{(2R)-2-Amino-2-carboxyethyl]sulphanyl}-2,5-dioxopyrrolidin-1-yl)-17-oxo-4,7,10,13-tetraoxa-16-azanonadecan-1-oyl]-R/S-{2-[(3-aminopropyl){(1R)-1-[1-benzyl-4-(2,5-difluorophenyl)-1H-imidazol-2-yl]-2,2-dimethylpropyl}amino]-2-oxoethyl}homocysteine/trifluoroacetic acid (1:2)]	2.51 nM	≥ 500 nM	0.17 ×10⁻⁶ cm/s	1
CC(C)(C)[C@H](c1nn(-c2cc(F)ccc2F)cc1Cc1ccccc1)N(CCCN)C(=O)CO [Example 96, N-(3-Aminopropyl)-N-{(1R)-1-[4-benzyl-1-(2,5-difluorophenyl)-1H-pyrazol-3-yl]-2,2-dimethylpropyl}-2-hydroxyacetamide]	7.8 nM	2.09 nM	28.5 ×10⁻⁶ cm/s	16
CC(C)(C)[C@H](c1nc(-c2cc(F)ccc2F)cn1Cc1ccccc1)N(CC[C@H](N)C(=O)NCCC(=O)NCCN1C(=O)CC(SC[C@H](N)C(=O)O)C1=O)C(=O)CO.O=C(O)C(F)(F)F (stereo partly drawn) [Example 130, S-(1-{2-[(N-{(2S)-2-Amino-4-[{(1R)-1-[1-benzyl-4-(2,5-difluorophenyl)-1H-imidazol-2-yl]-2,2-dimethylpropyl}(glycoloyl)amino]butanoyl}-beta-alanyl)amino]ethyl}-2,5-dioxopyrrolidin-3-yl)-L-cysteine/trifluoroacetic acid (1:1)]	1.66 nM	178 nM	1 ×10⁻⁶ cm/s	6.7
CC(C)(C)[C@H](c1nn(-c2cc(F)ccc2F)cc1Cc1ccccc1)N(CC[C@H](N)C(=O)NCCNC(=O)CN1C(=O)CC(SC[C@H](N)C(=O)O)C1=O)C(=O)CO.O=C(O)C(F)(F)F (stereo partly drawn) [Example 131, S-[1-(2-{[2-({(2S)-2-Amino-4-[{(1R)-1-[4-benzyl-1-(2,5-difluorophenyl)-1H-pyrazol-3-yl]-2,2-dimethylpropyl}(glycoloyl)amino]butanoyl}amino)ethyl]amino}-2-oxoethyl)-2,5-dioxopyrrolidin-3-yl]-L-cysteine/trifluoroacetic acid (1:1)]	1.24 nM	≥ 500 nM	0.9 ×10⁻⁶ cm/s	10
C[C@H](NC(=O)CCNC(=O)[C@@H](N)CCN(C(=O)CO)[C@@H](c1nn(-c2cc(F)ccc2F)cc1Cc1ccccc1)C(C)(C)C)C(=O)N[C@@H](CCCNC(N)=O)C(=O)Nc1ccc(N2C(=O)CC(SC[C@H](N)C(=O)O)C2=O)cc1.O=C(O)C(F)(F)F (stereo partly drawn) [Example 132, N-{(2S)-2-Amino-4-[{(1R)-1-[4-benzyl-1-(2,5-difluorophenyl)-1H-pyrazol-3-yl]-2,2-dimethylpropyl}(glycoloyl)amino]butanoyl}-beta-alanyl-L-alanyl-N-[4-(3-{[(2R)-2-amino-2-carboxyethyl]sulphanyl}-2,5-dioxopyrrolidin-1-yl)phenyl]-N^5-carbamoyl-L-ornithinamide/trifluoroacetic acid (1:1)]	1.65 nM	≥ 500 nM	0.16 ×10⁻⁶ cm/s	1
CC(C)(C)[C@H](c1cc(-c2cc(F)ccc2F)cn1Cc1ccccc1)N(CC[C@H](N)C(=O)NCCC(=O)NCCN1C(=O)CC(SC[C@H](N)C(=O)O)C1=O)C(=O)CO.O=C(O)C(F)(F)F (stereo partly drawn) [Example 133, S-(1-{2-[(N-{(2S)-2-Amino-4-[{(1R)-1-[1-benzyl-4-(2,5-difluorophenyl)-1H-pyrrol-2-yl]-2,2-dimethylpropyl}(glycoloyl)amino]butanoyl}-beta-alanyl)amino]ethyl}-2,5-dioxopyrrolidin-3-yl)-L-cysteine/trifluoroacetic acid (1:1)]	4.13 nM	155 nM	0.43 ×10⁻⁶ cm/s	6
CC(C)[C@H](NC(=O)CCCCCN1C(=O)CC(SC[C@H](N)C(=O)O)C1=O)C(=O)N[C@@H](CCCNC(N)=O)C(=O)N[C@@H](CCCCNC(=O)[C@@H](N)CCN(C(=O)CO)[C@@H](c1nn(-c2cc(F)ccc2F)cc1Cc1ccccc1)C(C)(C)C)C(=O)O (stereo partly drawn) [Example 134, N-[6-(3-{[(2R)-2-Amino-2-carboxyethyl]sulphanyl}-2,5-dioxopyrrolidin-1-yl)hexanoyl]-L-valyl-N^5-carbamoyl-L-ornithyl-N^6-{(2S)-2-amino-4-[{(1R)-1-[4-benzyl-1-(2,5-difluorophenyl)-1H-pyrazol-3-yl]-2,2-dimethylpropyl}(glycoloyl)amino]butanoyl}-L-lysine/trifluoroacetic acid (1:1)]	4.35 nM	≥ 500 nM	0.29 ×10⁻⁶ cm/s	0.5
CC(C)(C)[C@H](c1nn(-c2cc(F)ccc2F)cc1Cc1ccccc1)N(CC[C@H](N)C(=O)NCCNC(=O)CSC[C@H](N)C(=O)O)C(=O)CO.O=C(O)C(F)(F)F [Example 136, S-(2-{[2-({(2S)-2-Amino-4-[{(1R)-1-[4-benzyl-1-(2,5-difluorophenyl)-1H-pyrazol-3-yl]-2,2-dimethylpropyl}(glycoloyl)amino]butanoyl}amino)ethyl]amino}-2-oxoethyl)-L-cysteine/trifluoroacetic acid (1:1)]	0.328 nM	≥ 500 nM	0.91 ×10⁻⁶ cm/s	8.5
CC(C)(C)[C@H](c1cc(-c2cc(F)ccc2F)cn1Cc1ccccc1)N(CCCN)C(=O)CCC(=O)O [Example 225, 4-[(3-Aminopropyl) {(1R)-1-[1-benzyl-4-(2,5-difluorophenyl)-1H-pyrrol-2-yl]-2,2-dimethylpropyl}amino]-4-oxobutanoic acid/trifluoroacetic acid (1:1)]	0.425 nM	1.51 nM	–	–
CC(C)(C)[C@H](c1nn(-c2cc(F)ccc2F)cc1Cc1ccccc1)N(CCCN)C(=O)c1ccc(N)cc1 [Example 227, Trifluoroacetic acid/4-amino-N-(3-aminopropyl)-N-{(1R)-1-[4-benzyl-1-(2,5-difluorophenyl)-1H-pyrazol-3-yl]-2,2-dimethylpropyl}benzamide (2:1)]	1.78 nM	1.82 nM	–	–
CC(=O)N[C@@H](CSCC(=O)N(CCCN)[C@@H](c1cc(-c2cc(F)ccc2F)cn1Cc1ccccc1)C(C)(C)C)C(=O)O [Example 228, N-Acetyl-S-{2-[(3-aminopropyl){(1R)-1-[1-benzyl-4-(2,5-difluorophenyl)-1H-pyrrol-2-yl]-2,2-dimethylpropyl}amino]-2-oxoethyl}-L-cysteine/trifluoroacetic acid (1:1)]	3.07 nM	5.36 nM	–	–
CC(=O)N[C@@H](CSCC(=O)N(CCCNC(=O)[C@H](C)N)[C@@H](c1cc(-c2cc(F)ccc2F)cn1Cc1ccccc1)C(C)(C)C)C(=O)O [Example 229, N-acetyl-S-[2-([3-(L-alanylamino)propyl]{(1R)-1-[1-benzyl-4-(2,5-difluorophenyl)-1H-pyrrol-2-yl]-2,2-dimethylpropyl}amino)-2-oxoethyl]-L-cysteine/trifluoroacetic acid (1:1)]	4.44 nM	≥ 500 nM	–	–
CC(C)(C)[C@H](c1cc(-c2cc(F)ccc2F)cn1Cc1ccccc1)N(CCCN)C(=O)[C@@H]1CCCO1 [Example 230, Trifluoroacetic acid/(2S)—N-(3-aminopropyl)-N-{(1R)-1-[1-benzyl-4-(2,5-difluorophenyl)-1H-pyrrol-2-yl]-2,2-dimethylpropyl}tetrahydrofuran-2-carboxamide (1:1)]	3.41 nM	0.0121 nM	–	–
CC(C)(C)[C@H](c1cc(-c2cc(F)ccc2F)cn1Cc1ccccc1)N(CCCN)C(=O)CSCCC(=O)O [Example 231, 3-({2-[(3-Aminopropyl){(1R)-1-[1-benzyl-4-(2,5-difluorophenyl)-1H-pyrrol-2-yl]-2,2-dimethylpropyl}amino]-2-oxoethyl}sulphanyl)propanoic acid/trifluoroacetic acid (1:1)]	1.67 nM	0.918 nM	–	–
CC(C)(C)[C@H](c1cc(-c2cc(F)ccc2F)cn1Cc1ccccc1)N(CCCN)C(=O)c1ccc(N)cc1 [Example 233, Trifluoroactic acid/4-amino-N-(3-aminopropyl)-N-{(1R)-1-[1-benzyl-4-(2,5-difluorophenyl)-1H-pyrrol-2-yl]-2,2-dimethylpropyl}benzamide (2:1)]	3.88 nM	0.963 nM	–	–
CC(C)(C)[C@H](c1cc(-c2cc(F)ccc2F)cn1Cc1ccccc1)N(CC[C@H](N)C(=O)NCCCCCCN1C(=O)CC(SC[C@H](N)C(=O)O)C1=O)C(=O)CO (stereo partly drawn) [Example 249, S-{1-[6-({(2S)-2-Amino-4-[{(1R)-1-[1-benzyl-4-(2,5-difluorophenyl)-1H-pyrrol-2-yl]-2,2-dimethylpropyl}(glycoloyl)amino]butanoyl}amino)hexyl]-2,5-dioxopyrrolidin-3-yl}-L-cysteine/trifluoroacetic acid (1:1)]	0.915 nM	26.6 nM	–	–
